Counter-ions that a name gives are not always drawn.
How the values were obtained:
[1] = system: ob/ob and db/db mice; details: following 8 weeks of administration; cited from earlier work
[2] = biological target: recombinant human AMPK complex 1 (containing α1β1γ1) (Homo sapiens, UniProt Q13131+Q9Y478); assay: In vitro AMPK activation assay (AMPKSAMSF); format: biochemical; details: recombinant human AMPK complex 1 (α1β1γ1); for Emax: read-out: maximum AMP activation
Procedure: AMPKSAMSF (In Vitro AMPK Activation Assay)
The recombinant human AMPK complex 1 (containing α1β1γ1) was obtained from baculovirus expression system. Recombinant viruses were generated by cotransfection of AMPK/pBacPak9 clones with Baculogold baculovirus DNA (Pharmingen) in spodoptera frugiperda 21 cells according to the manufacturer's instructions. Each round of virus amplification was performed for 5 days in Grace's medium containing 10% serum. Virus that had been subjected to three rounds of amplification was used for all protein production procedures. To express the AMPK complex, sf21 cells were adapted to serum free medium (SF900 II, Invitrogen) by sequential dilution from serum containing stocks into SF900 II medium and maintained in shaker flasks at 90 rpm at 27° C. The recombinant AMPK enzyme complex was produced by triple infection, one recombinant virus for each of the subunits, in sf21 cells under serum free conditions. Cells were infected in log phase, 1×10^6 cells/ml, at a multiplicity of infection of ˜5. Cells were harvested by centrifugation at 10,000×g for 15 minutes after 72 hours of infection with viruses. The insect cell pellet from 2 liters of culture was resuspended in 50 ml lysis buffer (20 mM Tris-HCl, 50 mM NaCl, 50 mM NaF, 30 mM Na PPi, 0.25 M sucrose, 10 mM ZnCl2, 2 mM DTT, 0.4 mg/ml digitonin) and subjected to two cycles of freeze-thaw lysis in a dry-ice ethanol bath. Insoluble material was removed by centrifugation at 10,000×g and the supernatant was fractionated with use of polyethylene glycol (PEG). The protein fraction precipitating between 2.5 and 6% PEG was used for further purification using a Blue-Sepharose step (Zhou et al, J. Clin. Invest. 108, 1167-1174, 2001).
The total in vitro AMPK activation assay volume is 50 μl in a 96-well plate. The reaction mixture contained 100 μM ATP (0.5 μCi ^33P-ATP per reaction), and 50 μM SAMS (HMRSAMSGLHLVKRR) in a buffer (20 mM HEPES, pH 7.0, 5 mM MgCl2, 0.01% Brij35). The reaction was initiated with addition of the enzyme. After 30-minute incubation at 30° C., the reaction was stopped by addition of 80 μl 1% H3PO4. Aliquots (100 μl) were transferred to 96-well MultiScreen plates (MAPHNOB50; Millipore Corp., Bedford, Mass., USA). The plate was washed three times with 1% H3PO4 followed by detection in a Top-count. The counts per minute from the basal activity (the reaction without activator) was subtracted from each well and the data were expressed as % maximum AMP activation followed by EC50 calculation.

recombinant human AMPK complex 1 (containing α1β1γ1), sequence (Q13131 whole entry): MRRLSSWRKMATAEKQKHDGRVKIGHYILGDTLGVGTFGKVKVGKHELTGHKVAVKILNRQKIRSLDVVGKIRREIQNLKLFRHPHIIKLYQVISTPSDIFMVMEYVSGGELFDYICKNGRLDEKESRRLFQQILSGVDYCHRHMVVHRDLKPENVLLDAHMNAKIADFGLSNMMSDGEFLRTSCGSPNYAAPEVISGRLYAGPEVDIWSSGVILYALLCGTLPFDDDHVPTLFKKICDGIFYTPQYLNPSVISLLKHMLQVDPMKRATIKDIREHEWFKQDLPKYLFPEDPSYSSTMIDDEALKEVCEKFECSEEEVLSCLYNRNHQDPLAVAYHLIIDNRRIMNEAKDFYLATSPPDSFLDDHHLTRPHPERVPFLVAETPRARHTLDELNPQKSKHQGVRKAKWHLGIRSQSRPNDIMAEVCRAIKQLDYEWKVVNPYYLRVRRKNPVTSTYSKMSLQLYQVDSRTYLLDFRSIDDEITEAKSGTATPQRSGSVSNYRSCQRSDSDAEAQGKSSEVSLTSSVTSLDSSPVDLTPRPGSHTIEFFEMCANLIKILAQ
recombinant human AMPK complex 1 (containing α1β1γ1), sequence (Q9Y478 whole entry): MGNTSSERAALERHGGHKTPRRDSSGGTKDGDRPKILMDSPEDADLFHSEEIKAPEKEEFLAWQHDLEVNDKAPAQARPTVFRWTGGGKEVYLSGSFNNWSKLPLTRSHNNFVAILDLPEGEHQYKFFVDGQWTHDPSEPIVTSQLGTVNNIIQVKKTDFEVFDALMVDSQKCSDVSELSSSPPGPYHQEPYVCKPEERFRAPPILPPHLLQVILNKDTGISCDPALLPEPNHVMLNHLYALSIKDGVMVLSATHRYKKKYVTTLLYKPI
recombinant human AMPK complex 1 (containing α1β1γ1), sequence (P54619 whole entry partner): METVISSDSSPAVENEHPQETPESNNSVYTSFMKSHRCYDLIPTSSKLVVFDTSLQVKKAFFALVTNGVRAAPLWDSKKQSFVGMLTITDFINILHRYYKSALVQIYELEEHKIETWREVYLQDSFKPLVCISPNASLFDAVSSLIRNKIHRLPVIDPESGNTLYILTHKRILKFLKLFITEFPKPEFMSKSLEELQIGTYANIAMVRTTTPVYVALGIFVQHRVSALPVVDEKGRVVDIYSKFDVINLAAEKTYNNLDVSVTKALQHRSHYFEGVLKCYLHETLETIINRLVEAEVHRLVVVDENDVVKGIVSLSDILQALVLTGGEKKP

SMILES | blood glucose reduction [1] | melting point | Emax [2] | EC50 [2] | % Maximum AMP Activation of human AMPK Complex 1 ([2]; basal activity subtracted)
NC(=O)c1ncn([C@@H]2O[C@H](CO)[C@@H](O)[C@H]2O)c1N [AICAR] | 35% |  |  |  | 
Cc1ccc(Oc2nc3cc(-c4ccc(-c5ccccc5)cc4)c(Cl)cc3[nH]2)cc1P(=O)(O)O (as salt: salt) [Example 1, ((5-(4-Biphenyl)-6-chloro-1H-benzimidazol-2-yl)oxo)-4-methylphen-3-ylphosphonic acid] |  | 225 to 228 °C |  |  | 
Cc1ccc(Cc2nc3cc(-c4ccc(-c5ccccc5)cc4)c(Cl)cc3[nH]2)cc1P(=O)(O)O [Example 11, {5-[(5-biphenyl-4-yl-6-chloro-1H-benzimidazol-2-yl)methyl]-2-methylphenyl}phosphonic acid] |  | > 220 °C | > 80% |  | 
O=P(O)(O)c1cccc(Oc2nc3cc(-c4ccc(-c5ccccc5)cc4)c(Cl)cc3[nH]2)c1 [Example 2, ((5-(4-Biphenyl)-6-chloro-1H-benzimidazol-2-yl)oxo)phen-3-ylphosphonic acid] |  | 199 to 205 °C | > 80% | 2.5 nM | 205%
Cc1ccc(Oc2nc3cc(-c4ccc(-c5ccccc5)cc4)c(Cl)cc3[nH]2)cc1[P@@]1(=O)OCC[C@H](c2ccncc2)O1 (relative stereo) [Example 21, Trans-5-Biphenyl-4-yl-6-chloro-2-[4-methyl-3-(2-oxo-4-pyridin-4-yl-2lambda*5*-[1,3,2]dioxophosphinan-2-yl)-phenoxy]-1H-benzoimidazole] |  |  | > 80% |  | 

Source: patent publication US8410284B2, “Cyclic benzimidazole derivatives useful as anti-diabetic agents” (Merck Sharp & Dohme Corp, priority 2008, dated 2013)
